Converted amounts (≈) assume the structure as drawn. *1 amine or outer side, *2 acyl side, *3 side chain or, on linkers, in order; H or OH if unused. Where a SMILES comes first, the peptide text is derived from it. Bridges are numbered along the chain shown (N, C = ends). [ ]: non-standard residue; d: D form. The star is where a group is joined. hTyr(3S-OH,4S-OH,3'-OSO3H) = N[C@H](C(=O)O)[C@H](O)[C@@H](O)c1ccc(O)c(OS(=O)(=O)O)c1; Orn(4R-OH,5R-OH) = O=C([C@H](C[C@@H](O)[C@@H](O)N[*:3])N[*:1])[*:2]; Pro(3S-OH,4S-Me) = C[C@H]1CN[C@H](C(=O)O)[C@H]1O; X1 = CCCCCOc1ccc(-c2cc(-c3ccc(C(=O)*)cc3)no2)cc1; Gln(3R-OH) = NC(=O)C[C@@H](O)[C@H](N)C(=O)O; Hyp = O=C(O)[C@@H]1C[C@@H](O)CN1
Legend:
Aspergillus fumigatus [1] = test: Antifungal activity against Aspergillus fumigatus isolate after 24 hrs by CLSI method
Aspergillus fumigatus [2] = test: Antifungal activity against Aspergillus fumigatus isolate after 48 hrs by CLSI method

MIC (Aspergillus fumigatus [1])	MIC (Aspergillus fumigatus [2])	SMILES
≤ 0.03 µg/mL	≤ 0.03 µg/mL	CCCCCOc1ccc(-c2cc(-c3ccc(C(=O)N[C@H]4C[C@@H](O)[C@@H](O)NC(=O)[C@@H]5[C@@H](O)[C@@H](C)CN5C(=O)[C@H]([C@H](O)CC(N)=O)NC(=O)[C@H]([C@H](O)[C@@H](O)c5ccc(O)c(OS(=O)(=O)O)c5)NC(=O)[C@@H]5C[C@@H](O)CN5C(=O)[C@H]([C@@H](C)O)NC4=O)cc3)no2)cc1 [MICAFUNGIN] (X1-[Orn(4R-OH,5R-OH)]T[Hyp][hTyr(3S-OH,4S-OH,3'-OSO3H)][Gln(3R-OH)][Pro(3S-OH,4S-Me)]; lactam 1-C)
64 µg/mL (≈ 129 µM)	128 µg/mL (≈ 258 µM)	C[C@@H]([C@H](N)C(=O)N[C@H](C(=O)O)[C@H]1O[C@@H](n2ccc(=O)[nH]c2=O)[C@H](O)[C@@H]1O)[C@H](O)c1ccc(O)cn1 [NIKKOMYCIN]

SMILES	MIC (Aspergillus fumigatus [1])	MIC (Aspergillus fumigatus [2])
C[C@@H]1[C@H](O)[C@@H](C)/C=C/C=C/C=C/C=C/C=C/C=C/C=C/[C@H](O[C@@H]2O[C@H](C)[C@@H](O)[C@H](N)[C@@H]2O)C[C@@H]2O[C@](O)(C[C@@H](O)C[C@@H](O)[C@H](O)CC[C@@H](O)C[C@@H](O)CC(=O)O[C@H]1C)C[C@H](O)[C@H]2C(=O)O (stereo in doubt) [AMPHOTERICIN B]	0.5 µg/mL (≈ 0.541 µM)	0.5 µg/mL (≈ 0.541 µM)
